Tests used:
Assay in all cases: drug activity profiling cytotoxicity
Format in all cases: cell-based
[1] = test system: 22Rv1; settings: Homo sapiens; 22Rv1 cell line, Prostate; read-out: Aza-T-dCyd IC50
Procedure, shortened: (§1)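 Read-out is cytotoxicity from drug activity profiling of Aza-T-dCyd, run over 200 cell lines.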

[2] = test system: A375; settings: Homo sapiens, A-375; A375 cell line, Skin (Melanoma); read-out: Aza-T-dCyd IC50
Procedure, shortened: as §1

[3] = test system: KHOS-240S; settings: KHOS-240S cell line, Bone (Osteosarcoma); read-out: Aza-T-dCyd IC50
Procedure, shortened: as §1

[4] = test system: HuCCT1; settings: Homo sapiens, HuCCT-1; HuCCT1 cell line, Liver; read-out: Aza-T-dCyd IC50
Procedure, shortened: as §1

[5] = test system: A-704; settings: Homo sapiens, A704; A-704 cell line, Kidney; read-out: Aza-T-dCyd IC50
Procedure, shortened: as §1

[6] = test system: BM-1604; settings: BM-1604 cell line, Prostate; read-out: Aza-T-dCyd IC50
Procedure, shortened: as §1

[7] = test system: T47D; settings: Homo sapiens; T47D cell line, Breast; read-out: Aza-T-dCyd IC50
Procedure, shortened: as §1

[8] = test system: BxPC-3; settings: Homo sapiens; BxPC-3 cell line, Pancreas; read-out: Aza-T-dCyd IC50
Procedure, shortened: as §1

[9] = test system: DU145; settings: Homo sapiens, DU-145; DU145 cell line, Prostate; read-out: Aza-T-dCyd IC50
Procedure, shortened: as §1

[10] = test system: SW900; settings: Homo sapiens; SW900 cell line, Lung (NSCLC); read-out: Aza-T-dCyd IC50
Procedure, shortened: as §1

[11] = test system: NTERA-2 cl.D1; settings: Homo sapiens; NTERA-2 cl.D1 cell line, Testis; read-out: Aza-T-dCyd IC50
Procedure, shortened: as §1

[12] = test system: DK-MG; settings: DK-MG cell line, CNS (Glioma); read-out: Aza-T-dCyd IC50
Procedure, shortened: as §1

[13] = test system: SU-DHL-10; settings: Homo sapiens, SU-DHL10; SU-DHL-10 cell line, B-cell lymphoma; read-out: Aza-T-dCyd IC50
Procedure, shortened: as §1

[14] = test system: MDA MB 415; settings: Homo sapiens; MDA MB 415 cell line, Breast; read-out: Aza-T-dCyd IC50
Procedure, shortened: as §1

[15] = test system: SW480; settings: Homo sapiens; SW480 cell line, Colon; read-out: Aza-T-dCyd IC50
Procedure, shortened: as §1

[16] = test system: SK-UT-1; settings: Homo sapiens; SK-UT-1 cell line, Sarcoma; read-out: Aza-T-dCyd IC50
Procedure, shortened: as §1

[17] = test system: LS-174T; settings: Homo sapiens, LS174T; LS-174T cell line, Colon; read-out: Aza-T-dCyd IC50
Procedure, shortened: as §1

[18] = test system: A427; settings: Homo sapiens, A-427; A427 cell line, Lung (NSCLC); read-out: Aza-T-dCyd IC50
Procedure, shortened: as §1

[19] = test system: HepG2; settings: Homo sapiens; HepG2 cell line, Liver; read-out: Aza-T-dCyd IC50
Procedure, shortened: as §1

[20] = test system: JeKo-1; settings: Homo sapiens; JeKo-1 cell line, B-cell lymphoma; read-out: Aza-T-dCyd IC50
Procedure, shortened: as §1

[21] = test system: LS411N; settings: Homo sapiens, LS-411N; LS411N cell line, Colon; read-out: Aza-T-dCyd IC50
Procedure, shortened: as §1

[22] = test system: C-33A; settings: Homo sapiens; C-33A cell line, Female GU (Cervix); read-out: Aza-T-dCyd IC50
Procedure, shortened: as §1

[23] = test system: Colo 205; settings: Homo sapiens; Colo 205 cell line, Colon; read-out: Aza-T-dCyd IC50
Procedure, shortened: as §1

[24] = test system: MES-SA; settings: Homo sapiens; MES-SA cell line, Sarcoma; read-out: Aza-T-dCyd IC50
Procedure, shortened: as §1

[25] = test system: Hs 821.T; settings: Hs 821.T cell line, Sarcoma; read-out: Aza-T-dCyd IC50
Procedure, shortened: as §1

[26] = test system: Calu6; settings: Homo sapiens, Calu-6; Calu6 cell line, Lung (NSCLC); read-out: Aza-T-dCyd IC50
Procedure, shortened: as §1

[27] = test system: BFTC-905; settings: Homo sapiens; BFTC-905 cell line, Bladder; read-out: Aza-T-dCyd IC50
Procedure, shortened: as §1

[28] = test system: IM-9; settings: Homo sapiens; IM-9 cell line, B-cell lymphoma; read-out: Aza-T-dCyd IC50
Procedure, shortened: as §1

[29] = test system: OVCAR3; settings: Homo sapiens, OVCAR-3; OVCAR3 cell line, Female GU (Ovary); read-out: Aza-T-dCyd IC50
Procedure, shortened: as §1

[30] = test system: MALME3M; settings: Homo sapiens, Malme-3M; MALME3M cell line, Skin (Melanoma); read-out: Aza-T-dCyd IC50
Procedure, shortened: as §1

**Q.** Which results are given for `Nc1ncn([C@H]2CC(O)[C@@H](CO)S2)c(=O)n1` (stereo partly drawn) [Aza-T-dCyd, 4′-thio-5-aza-2′-deoxycytidine]?
**A.** IC50 [1]: 2710 nM; IC50 [2]: 66.7 nM; IC50 [3]: 254 nM; IC50 [4]: 105 nM; IC50 [5]: > 10000 nM; IC50 [6]: 4410 nM; IC50 [7]: > 10000 nM; IC50 [8]: 699 nM; IC50 [9]: 432 nM; IC50 [10]: 1980 nM; IC50 [11]: 42.7 nM; IC50 [12]: > 10000 nM; IC50 [13]: 36.6 nM; IC50 [14]: > 10000 nM; IC50 [15]: 1580 nM; IC50 [16]: 343 nM; IC50 [17]: > 10000 nM; IC50 [18]: 77.5 nM; IC50 [19]: 892 nM; IC50 [20]: 38.5 nM; IC50 [21]: 265 nM; IC50 [22]: 497 nM; IC50 [23]: 81.1 nM; IC50 [24]: 135 nM; IC50 [25]: > 10000 nM; IC50 [26]: 289 nM; IC50 [27]: 119 nM; IC50 [28]: 1050 nM; IC50 [29]: 3440 nM; IC50 [30]: 7450 nM
